Results taken from US8022043B2, “Ceramide derivatives as modulators of immunity and autoimmunity” (Albert Einstein College of Medicine of Yeshiva University, priority 2004, dated 2011).
pEC50: −log10 of the molar value.

Key:
Assay type in all cases: cell-based
[1] = system: Bulk splenocytes from C57BL/6 mice; test: Cytokine response of splenocyte cultures (IL-4 and IFNγ ELISA); settings: 500 nM glycolipid, 48 hours; for Cytokine Response IFNγ / Cytokine Response IL-4: culture supernatant ELISA, ND = below the reliable level for detection
Procedure: The cytokine response reported in Table 1 and FIG. 5C was determined by the following procedure: Bulk splenocytes from C57BL/6 mice were plated at 300,000 per well in 96-well flat-bottom tissue culture plates with ceramide-like glycolipids diluted to a concentration of 500 nM in 200 microliters complete medium. After 48 h at 37° C., 150 microliters of supernatant was removed for cytokine measurements. Supernatant levels of IL-4, and IFNγ were measured by standard enzyme-linked immunosorbent assay (ELISA), using capture and biotinylated detection antibody pairs (clones 11B11/BVD6-24G2-biotin, and R4-6A2/XMG1.2-biotin, respectively, from BD Pharmingen, San Diego, Calif.). […] Standards for IL-4 and IFNγ were from Peprotech (Rocky Hill, N.J.).

NK T cells = test: NK T cell activation screens (Example, FIG. 5 and Table 1); settings: see Example
Text: Using these methods, we produced more than 60 novel amino substituted analogues of KRN7000. These were screened in a functional assay that assessed the ability of the compounds to activate NK T cell hybridomas in the presence of various types of cells expressing CD1d, or in the presence of recombinant CD1d proteins bound to the tissue culture plate surface (FIG. 5).

[2] = system: Bulk splenocytes from C57BL/6 mice; test: Splenocyte proliferation assay (3H-thymidine incorporation); settings: concentration giving 50% maximal response in proliferation of splenocyte cultures, 3H-thymidine incorporation
Procedure: The results were obtained using a splenocyte proliferation assay according to the following procedure: Bulk splenocytes from C57BL/6 mice were plated at 300,000 per well in 96-well flat-bottom tissue culture plates with the indicated ceramide-like glycolipid diluted in complete medium to the concentrations shown. After 48 h at 37° C., the plate wells were pulsed with 20 microliters of medium containing 50 microCi/ml ^3H-thymidine and incubated for a further 18 h. Cell proliferation was estimated by harvesting pulsed cells onto 96-well filtermats and scintillation counting on a 1450 Microbeta Trilux instrument (Wallac/Perkin Elmer, Boston, Mass.).

iNKT cells = test: In vitro cytokine modulation, murine cell assay system; settings: for IFNγ induction: DB03-3: in some murine strains; for in vitro activity at modulating cytokines: murine cell assay system
Text: The term iNKT cells, as used herein, mean the specific subset of CD1d-dependent T cells that expresses the invariant TCRα chain rearrangement consisting of Vα14-Jα18 in mice, and Vα24-Jα18 in humans. These cells are uniformly reactive to α-galactosylceramides presented by CD1d. These cells are also referred to as “Type 1” NKT cells, and the distinction between the different types of NKT cells and the nomenclature relating to this are summarized in the publication by Godfrey et al., Nat Rev Immunol. 2004 March; 4(3):231-7. Methods for determining cytokine production by iNKT cells in response to CD1d-presented glycolipids for determination of strong or weak agonist activity are described in Yu K O A, Im J S, Molano A, Dutronc Y, Illarionov P A, Forestier C, Fujiwara N, Arias I, Miyake S, Yamamura T, Chang Y-T, Besra G S, Porcelli S A, Modulation of CD1d-restricted NKT cell responses using N-acyl variants of α-galactosylceramides, Proc. Nat. Acad. Sci. (USA), 102:3383-8 (2005), see also Godfrey D I et al., Nat Rev Immunol. 2004 March; 4(3):231-7.

## CCCCCCCCCCCCCC[C@@H](O)[C@@H](O)[C@H](CO[C@H]1O[C@H](CO)[C@H](O)[C@H](O)[C@H]1O)NC(=O)C1(c2ccccc2)CCCC1 [YTCO3-46]
[1]
  IL-4/IFNγ ratio divided by this ratio for DB01-1 (value in parentheses): 1.0
  ratio IL-4/IFNγ: 0.026
  Cytokine Response IFNγ: 8.52 ng/mL
  Cytokine Response IL-4: 0.22 ng/mL
NK T cells
  effectiveness of compound: Particularly effective
[2]
  pEC50: 8.32

## CCCCCCCCCCCCCCC(O)C(O)C(COC1OC(CO)C(O)C(O)C1O)NC(=O)Cc1ccccc1Cl (centres unmarked) [YTCO3-45]
[1]
  IL-4/IFNγ ratio divided by this ratio for DB01-1 (value in parentheses): 1.6
  ratio IL-4/IFNγ: 0.041
  Cytokine Response IFNγ: 15.26 ng/mL
  Cytokine Response IL-4: 0.63 ng/mL
[2]
  pEC50: 6.65

## CCCCCCCCCCCCCCC(O)C(O)C(COC1OC(CO)C(O)C(O)C1O)NC(=O)CCCCC (centres unmarked) [YTC03-31]
NK T cells
  effectiveness of compound: Particularly effective

## CCCCCCCCCCCCCCC(O)C(O)C(COC1OC(CO)C(O)C(O)C1O)NC(=O)Cc1ccc2c(c1)OCO2 (centres unmarked) [YTCO3-44]
[1]
  IL-4/IFNγ ratio divided by this ratio for DB01-1 (value in parentheses): 3.7
  ratio IL-4/IFNγ: 0.097
  Cytokine Response IFNγ: 14.19 ng/mL
  Cytokine Response IL-4: 1.38 ng/mL
[2]
  pEC50: 7.24

## CCCCCCCCCCCCCCC(O)C(O)C(COC1OC(CO)C(O)C(O)C1O)NC(=O)C=Cc1ccccc1 (centres unmarked) [YTCO3-42]
[2]
  pEC50: < 5.60

## CCCCCCCCCCCCCC[C@@H](O)[C@@H](O)[C@H](CO[C@H]1O[C@H](CO)[C@H](O)[C@H](O)[C@H]1O)NC(=O)Cc1c(F)cccc1Cl [YTCO3-49]
[1]
  IL-4/IFNγ ratio divided by this ratio for DB01-1 (value in parentheses): 1.1
  ratio IL-4/IFNγ: 0.028
  Cytokine Response IFNγ: 4.57 ng/mL
  Cytokine Response IL-4: 0.13 ng/mL
[2]
  pEC50: 7.24

## CCCCCCCCCCCCCC[C@@H](O)[C@@H](O)[C@H](CO[C@H]1O[C@H](CO)[C@H](O)[C@H](O)[C@H]1O)NC(=O)Cc1ccc(C)cc1 [YTCO3-51]
[1]
  IL-4/IFNγ ratio divided by this ratio for DB01-1 (value in parentheses): 0.2
  ratio IL-4/IFNγ: 0.006
  Cytokine Response IFNγ: 9.03 ng/mL
  Cytokine Response IL-4: 0.05 ng/mL
[2]
  pEC50: 7.20

## CCCCCCCCCCCCCCC(O)C(O)C(COC1OC(CO)C(O)C(O)C1O)NC(=O)CCCCCCCCCCC (centres unmarked) [YTC03-35]
NK T cells
  effectiveness of compound: Particularly effective

## CCCCCCCCCCCCCC[C@@H](O)[C@@H](O)[C@H](CO[C@H]1O[C@H](CO)[C@H](O)[C@H](O)[C@H]1O)NC(=O)c1ccc(OCCCCCCC)cc1 [YTCO3-53]
[1]
  IL-4/IFNγ ratio divided by this ratio for DB01-1 (value in parentheses): 1.2
  ratio IL-4/IFNγ: 0.030
  Cytokine Response IFNγ: 0.67 ng/mL
  Cytokine Response IL-4: 0.02 ng/mL
[2]
  pEC50: 7.42

## CCCCCCCCCCCCCC[C@@H](O)[C@@H](O)[C@H](CO[C@H]1O[C@H](CO)[C@H](O)[C@H](O)[C@H]1O)NC(=O)C(c1ccccc1)C(C)CC (some centres unmarked) [YTCO3-60]
[1]
  IL-4/IFNγ ratio divided by this ratio for DB01-1 (value in parentheses): 0.8
  ratio IL-4/IFNγ: 0.022
  Cytokine Response IFNγ: 8.18 ng/mL
  Cytokine Response IL-4: 0.18 ng/mL
NK T cells
  effectiveness of compound: Particularly effective
[2]
  pEC50: 7.96

## CCCCCCCC/C=C\CCCCCCCCCC(=O)N[C@@H](COC1OC(CO)C(O)C(O)C1O)[C@H](O)[C@H](O)CCCCCCCCCCCCCC (some centres unmarked) [DB03-3]
iNKT cells; in vitro
  IL-4 induction: good inducer of L-4
  IFNγ induction: strong inducer of IFNγ
iNKT cells
  in vitro activity at modulating cytokines: show in vitro activity

## CCCCCCCCCCCCCC[C@@H](O)[C@@H](O)[C@H](CO[C@H]1O[C@H](CO)[C@H](O)[C@H](O)[C@H]1O)NC(=O)Cc1cccc2ccccc12 [YTCO3-56]
[1]
  IL-4/IFNγ ratio divided by this ratio for DB01-1 (value in parentheses): 0.7
  ratio IL-4/IFNγ: 0.019
  Cytokine Response IFNγ: 11.79 ng/mL
  Cytokine Response IL-4: 0.22 ng/mL
NK T cells
  effectiveness of compound: Particularly effective
[2]
  pEC50: 7.94

## CCCCCCCCCCCCCC[C@@H](O)[C@@H](O)[C@H](COC1OC(CO)C(O)C(O)C1O)NC(=O)Cc1ccc(OC)cc1 (some centres unmarked) [YTC03-33]
NK T cells
  effectiveness of compound: Particularly effective

## CCCCCCCCCCCCCC[C@@H](O)[C@@H](O)[C@H](CO[C@H]1O[C@H](CO)[C@H](O)[C@H](O)[C@H]1O)NC(=O)C(C)(c1ccccc1)c1ccccc1 [YTCO3-58]
[1]
  IL-4/IFNγ ratio divided by this ratio for DB01-1 (value in parentheses): 0.9
  ratio IL-4/IFNγ: 0.024
  Cytokine Response IFNγ: 8.64 ng/mL
  Cytokine Response IL-4: 0.21 ng/mL
[2]
  pEC50: 7.29

## CCCCC/C=C\C/C=C\CCCCCCCC(=O)N[C@@H](COC1OC(CO)C(O)C(O)C1O)[C@H](O)[C@H](O)CCCCCCCCCCCCCC (some centres unmarked) [DB03-10]
iNKT cells; in vitro
  IL-2 induction: weak inducers of IL-2
  IL-4 induction: strong inducers of IL-4
  IFNγ induction: moderate inducers of IFNγ
iNKT cells
  in vitro activity at modulating cytokines: show in vitro activity

## CCCCCCCCCCCCCC[C@@H](O)[C@@H](O)[C@H](CO[C@H]1O[C@H](CO)[C@H](O)[C@H](O)[C@H]1O)NC(=O)Cc1cc(OC)ccc1OC [YTCO3-54]
[1]
  IL-4/IFNγ ratio divided by this ratio for DB01-1 (value in parentheses): 0.4
  ratio IL-4/IFNγ: 0.011
  Cytokine Response IFNγ: 10.39 ng/mL
  Cytokine Response IL-4: 0.11 ng/mL
[2]
  pEC50: 7.76

## CCCCCCCCCCCCCC[C@@H](O)[C@@H](O)[C@H](CO[C@H]1O[C@H](CO)[C@H](O)[C@H](O)[C@H]1O)NC(=O)C(OC)c1ccccc1 (some centres unmarked) [YTCO3-48]
[1]
  IL-4/IFNγ ratio divided by this ratio for DB01-1 (value in parentheses): 0.6
  ratio IL-4/IFNγ: 0.016
  Cytokine Response IFNγ: 12.56 ng/mL
  Cytokine Response IL-4: 0.20 ng/mL
[2]
  pEC50: 7.06

## CCCCCCCCCCCCCC[C@@H](O)[C@@H](O)[C@H](CO[C@H]1O[C@H](CO)[C@H](O)[C@H](O)[C@H]1O)NC(=O)[C@H](Cc1ccccc1)NC(=O)OC(C)(C)C [YTCO3-57]
[2]
  pEC50: 5.66

## CCCCCCCCCCCCCCC(O)C(O)C(COC1OC(CO)C(O)C(O)C1O)NC(=O)Cc1ccccc1OC (centres unmarked) [YTCO3-43]
[1]
  IL-4/IFNγ ratio divided by this ratio for DB01-1 (value in parentheses): 0.7
  ratio IL-4/IFNγ: 0.018
  Cytokine Response IFNγ: 19.50 ng/mL
  Cytokine Response IL-4: 0.35 ng/mL
[2]
  pEC50: 7.06

## CCCCCCCCCCCCCC[C@@H](O)[C@@H](O)[C@H](CO[C@H]1O[C@H](CO)[C@H](O)[C@H](O)[C@H]1O)NC(=O)Cc1cccc(C)c1 [YTCO3-52]
[1]
  IL-4/IFNγ ratio divided by this ratio for DB01-1 (value in parentheses): 0.7
  ratio IL-4/IFNγ: 0.019
  Cytokine Response IFNγ: 10.25 ng/mL
  Cytokine Response IL-4: 0.19 ng/mL
[2]
  pEC50: 7.77

## CCCCCCCCCCCCCC[C@@H](O)[C@@H](O)[C@H](CO[C@H]1O[C@H](CO)[C@H](O)[C@H](O)[C@H]1O)NC(=O)C(CC)c1ccccc1 (some centres unmarked) [YTCO3-61]
[1]
  IL-4/IFNγ ratio divided by this ratio for DB01-1 (value in parentheses): 0.9
  ratio IL-4/IFNγ: 0.023
  Cytokine Response IFNγ: 7.50 ng/mL
  Cytokine Response IL-4: 0.17 ng/mL
[2]
  pEC50: 7.14

## CCCCCCCCCCCCCC[C@@H](O)[C@@H](O)[C@H](CO[C@H]1O[C@H](CO)[C@H](O)[C@H](O)[C@H]1O)N=[N+]=[N-] [DB03-7]
iNKT cells
  in vitro activity at modulating cytokines: show in vitro activity
